Patent US12440494B2, “Compounds useful for inhibiting RAF dimers” (ALBERT EINSTEIN COLLEGE OF MEDICINE, priority 2019, dated 2025)

Assays:
BRAF^V600E [1] = target: T1, BRAF^V600E (Homo sapiens (Human), UniProt P15056, V600E); experiment: BRAF^V600E kinase activity, Z′-LYTE enzymatic assay (SelectScreen, Invitrogen); assay type: biochemical; conditions: 100 μM ATP; read-out: BRAF^V600E Inhibition IC50
Experimental: BRAF kinase assays were performed using the Z′-LYTE™ enzymatic assay (Invitrogen, USA). […] Titrations were performed using a 1:3 dilution. Assays were performed using SelectScreen (Invitrogen).
Target sequence in this assay (P15056 whole entry V600E): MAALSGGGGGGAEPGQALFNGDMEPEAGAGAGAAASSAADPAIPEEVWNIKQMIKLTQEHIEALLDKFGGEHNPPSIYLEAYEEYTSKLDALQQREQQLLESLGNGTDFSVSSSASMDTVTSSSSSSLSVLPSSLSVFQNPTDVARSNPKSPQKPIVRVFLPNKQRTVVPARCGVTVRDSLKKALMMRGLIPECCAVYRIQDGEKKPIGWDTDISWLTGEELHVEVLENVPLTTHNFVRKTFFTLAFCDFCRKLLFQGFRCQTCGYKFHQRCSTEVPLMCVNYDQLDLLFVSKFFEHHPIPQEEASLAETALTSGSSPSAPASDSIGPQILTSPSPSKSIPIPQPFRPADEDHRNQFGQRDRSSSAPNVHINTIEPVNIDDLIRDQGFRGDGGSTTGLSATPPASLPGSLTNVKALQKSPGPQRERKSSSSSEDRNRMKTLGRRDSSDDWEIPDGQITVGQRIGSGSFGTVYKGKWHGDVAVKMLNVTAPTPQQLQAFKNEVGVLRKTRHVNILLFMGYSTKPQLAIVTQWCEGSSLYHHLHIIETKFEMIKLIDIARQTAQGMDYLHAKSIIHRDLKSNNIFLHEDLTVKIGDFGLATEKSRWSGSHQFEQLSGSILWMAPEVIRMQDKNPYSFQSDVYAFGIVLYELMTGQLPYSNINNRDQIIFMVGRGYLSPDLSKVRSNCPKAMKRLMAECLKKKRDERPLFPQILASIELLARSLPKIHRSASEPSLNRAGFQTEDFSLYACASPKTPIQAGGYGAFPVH

BRAF^V600E [2] = experiment: Biolayer interferometry, direct binding to purified BRAF; parameters: species or system human
Experimental: Human BRAF kinase domain (residues 443-723) with V600E mutation in addition to designed mutations to improve expression in E. coli as previously described^12 was cloned into the first multiple cloning site of a pET-28a vector, which expresses a hexa-histidine tag at the N-terminus of BRAF. Recombinant protein was transformed and expressed into E. coli strain BL21-Codon Plus(DE3)-RIPL (Agilent Technologies). Protein purification was performed by a rapid two-step procedure using nickel-affinity chromatography (Ni-NTA) followed by size exclusion chromatography with Superdex200 HR 10/30 (GE Healthcare).
BRAF was biotinylated using EZ-Link™ Sulfo NHS-LC-LC-Biotin (Invitrogen) in phosphate-buffered saline (PBS) according to manufacturer instructions. Excess biotin was removed using size exclusion chromatography. Freshly biotinylated protein was immobilized on Super Streptavidin biosensors (SSA) to high levels (6-8 nm) followed by quenching with biocytin. Compound binding experiments were performed at 25° C. in PBS, 0.01% Tween-20 and 2% DMSO. To reference for bulk solvent effects, binding curves were corrected using data from control protein-free SSA biosensors, which were included in each experiment and were treated similarly to protein-loaded sensors.

FGFR = experiment: Kinase inhibition of known ponatinib target FGFR; assay type: biochemical
FLT3 = FLT3 (Homo sapiens (Human), UniProt P36888); experiment: Kinase inhibition of known ponatinib target FLT3; assay type: biochemical
FLT3, sequence (P36888 27-993, species assumed): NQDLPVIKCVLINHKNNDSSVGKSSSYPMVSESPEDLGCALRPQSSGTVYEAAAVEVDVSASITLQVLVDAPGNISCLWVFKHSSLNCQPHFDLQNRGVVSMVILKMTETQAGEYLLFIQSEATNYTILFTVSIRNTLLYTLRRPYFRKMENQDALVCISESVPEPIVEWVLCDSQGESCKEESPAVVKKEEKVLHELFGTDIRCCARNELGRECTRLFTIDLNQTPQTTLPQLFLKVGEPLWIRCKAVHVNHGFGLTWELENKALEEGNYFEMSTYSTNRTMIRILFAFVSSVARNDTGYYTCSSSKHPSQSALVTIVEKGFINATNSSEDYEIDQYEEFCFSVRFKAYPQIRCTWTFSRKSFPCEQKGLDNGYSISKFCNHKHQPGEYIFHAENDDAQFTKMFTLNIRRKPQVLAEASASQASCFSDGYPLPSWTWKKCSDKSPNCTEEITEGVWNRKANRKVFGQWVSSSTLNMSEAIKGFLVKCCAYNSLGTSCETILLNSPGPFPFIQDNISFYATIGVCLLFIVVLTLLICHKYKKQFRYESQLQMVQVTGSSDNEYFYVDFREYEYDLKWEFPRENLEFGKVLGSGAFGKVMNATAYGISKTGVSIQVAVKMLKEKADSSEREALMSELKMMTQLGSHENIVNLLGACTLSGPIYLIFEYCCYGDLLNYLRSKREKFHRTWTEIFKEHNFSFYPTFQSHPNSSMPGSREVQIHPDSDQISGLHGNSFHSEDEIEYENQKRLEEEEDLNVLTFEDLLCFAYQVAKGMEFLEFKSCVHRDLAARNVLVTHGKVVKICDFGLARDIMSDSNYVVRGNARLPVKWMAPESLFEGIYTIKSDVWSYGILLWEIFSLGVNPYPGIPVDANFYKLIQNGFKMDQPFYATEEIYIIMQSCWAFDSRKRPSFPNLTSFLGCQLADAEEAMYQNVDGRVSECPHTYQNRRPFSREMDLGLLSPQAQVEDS

[3] = test system: p61BRAF^V600E dimers (SKMEL239-C4 cells); experiment: pMEK/pERK inhibition by western blot in SKMEL239-C4 melanoma cells; assay type: cell-based
Experimental: (§1) Cell lines were purchased from ATCC or provided by Poulikos Poulikakos laboratory at Icahn School of Medicine at Mount Sinai. A375, SKMEL30 and SKMEL2 cells were grown in Dulbecco's modified Eagle's medium (DMEM) with 10% fetal bovine serum (FBS), 1% Pen-Strep, 1% Glutamine. […] CALU6 cells were grown in Roswell Park Memorial Institute medium (RPMI) with 10% fetal bovine serum (FBS), 1% Pen-Strep, 1% Glutamine.

[4] = test system: BRAF^V600E monomers (A375 cells); experiment: pMEK/pERK inhibition by western blot in A375 melanoma cells; assay type: cell-based; conditions: compared to ponatinib
Experimental: as §1

[5] = test system: SMEL239 C4 melanoma cells; experiment: Cell viability assay (Cell-Titer Glo), SKMEL239 C4; assay type: cell-based; conditions: 72 hours
Experimental: For cell viability assays, we followed the manufacturer's protocol for Cell-Titer Glo (Promega). In brief, cells were plated in 96-well plates at a density of 5000 cells per well. The next day, cells were treated with increasing concentrations of inhibitors for 72 hours at 37° C. At the end of the incubation period, 100 µL of Cell-Titer Glo (Promega) was added to each well and further incubated for 15 min. at room temperature. Cell viability was determined by measuring luminescence and was detected by a F200 PRO microplate reader (TECAN). Viability assays were performed in at least triplicate and the data normalized to vehicle-treated control wells. IC50 values were determined by nonlinear regression analysis using Prism software (Graphpad).

[6] = target: BRAF monomer (BRAF509H mutant) (Homo sapiens (Human), UniProt P15056, R509H); experiment: Isothermal titration calorimetry with BRAF509H mutant unable to dimerize; assay type: binding; conditions: PBS plus 2% DMSO
BRAF monomer (BRAF509H mutant), sequence (P15056 443-723 R509H limits assumed): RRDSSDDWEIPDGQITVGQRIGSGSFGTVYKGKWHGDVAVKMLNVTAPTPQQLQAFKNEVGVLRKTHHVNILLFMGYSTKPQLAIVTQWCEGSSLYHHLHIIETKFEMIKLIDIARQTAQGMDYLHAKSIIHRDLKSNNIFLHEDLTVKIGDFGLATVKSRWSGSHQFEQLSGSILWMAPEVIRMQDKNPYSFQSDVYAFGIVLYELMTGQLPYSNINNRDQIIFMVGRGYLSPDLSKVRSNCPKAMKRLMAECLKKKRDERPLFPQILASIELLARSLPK
Experimental: ITC was recorded using a MicroCal PEAQ-ITC instrument. […] Immediately before each ITC measurement, concentrated protein solution was diluted 0.8× in PBS, matched to 2% DMSO and used in the syringe. Protein was titrated in 18 or 20 injections of 2 l volume until saturation. Thermodynamic parameters were obtained using PEAQ-ITC analysis software and a one-site binding model.

BRAF/CRAF heterodimers = experiment: CRAF co-immunoprecipitation monitoring BRAF/CRAF heterodimerization in cells; assay type: cell-based; conditions: 1 μM (PHI1) or 1-5 μM (ponatinib), 1 hr
Experimental: (§2) Western blots were performed from whole cell lysates (WCL) prepared in lysis buffer containing 50 mM Tris-HCl pH7.5, 1% NP40, 150 mM NaCl, 1 mM EDTA and 10% glycerol in the presence of protease inhibitor cocktail (Roche). […] Co-immunoprecipitation assays were performed from whole cell lysate prepared in lysis buffer in the presence of protease inhibitor cocktail (Roche) and incubated at 4° C. overnight with gentle rotation, then protein G beads were added and incubated for 2 hrs more at 4° C. Kinase activity assay were performed following manufactured protocol with some modifications (Millipore). In brief, BRAF and CRAF kinase domain, and MEK1 recombinant proteins were incubated for 15 min with inhibitors, then corresponding substrates were added and incubated for 30 min at 30° C. and assay for western blot.

BRAF/MEK complex = experiment: MEK co-immunoprecipitation monitoring BRAF/MEK complex formation in cells; assay type: cell-based; conditions: 1 μM (PHI1) or 1-5 μM (ponatinib), 1 hr
Experimental: as §2

BRAF^V600E [7] = target: T1, BRAF^V600E; experiment: In vitro kinase assay, BRAF^V600E activity to phosphorylate recombinant MEK (western blot); assay type: biochemical; conditions: western blot readout
Target sequence in this assay (P15056 457-717 V600E): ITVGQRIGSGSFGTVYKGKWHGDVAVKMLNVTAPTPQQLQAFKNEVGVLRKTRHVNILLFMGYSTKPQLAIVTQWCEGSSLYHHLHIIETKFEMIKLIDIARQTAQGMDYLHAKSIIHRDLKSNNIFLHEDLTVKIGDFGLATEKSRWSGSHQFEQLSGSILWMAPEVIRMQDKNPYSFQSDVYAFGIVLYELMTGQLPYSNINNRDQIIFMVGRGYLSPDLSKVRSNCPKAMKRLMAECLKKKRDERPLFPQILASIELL
Experimental: as §2

CRAF = CRAF (Homo sapiens (Human), UniProt P04049); experiment: In vitro CRAF kinase activity assay (western blot); assay type: biochemical
CRAF, sequence (P04049 349-609, species assumed): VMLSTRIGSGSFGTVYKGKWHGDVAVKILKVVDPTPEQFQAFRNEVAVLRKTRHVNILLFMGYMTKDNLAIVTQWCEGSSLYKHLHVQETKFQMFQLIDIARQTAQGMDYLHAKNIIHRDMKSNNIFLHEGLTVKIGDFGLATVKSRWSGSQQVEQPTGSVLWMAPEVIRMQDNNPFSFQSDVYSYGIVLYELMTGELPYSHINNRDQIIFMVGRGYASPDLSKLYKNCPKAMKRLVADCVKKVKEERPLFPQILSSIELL
Experimental: as §2

ERK signaling = experiment: Inhibition of ERK signaling in BRAF^V600E, p61BRAF^V600E and RAS mutant/BRAF^WT cell lines (immunoblot); assay type: cell-based; conditions: 1 μM or 5 μM, 1 hr, all cell lines
Experimental: as §1

Compound | IC50 (BRAF^V600E [1]) [nM] | also measured
N#Cc1c(Oc2ccc(F)c(NC(=O)Cc3cccc(C(F)(F)F)c3)c2)ccc2nc(NC(=O)C3CC3)sc12 [TAK-632, reference compound] | 36.2 | –
C#Cc1cc(C(=O)Nc2ccc(CNCCN3CCN(C(=O)OC)CC3)c(C(F)(F)F)c2)ccc1C [Cmp. 8, Methyl 4-[2-([[4-(3-Ethynyl-4-Methylbenzamido)-2-(Trifluoromethyl)Phenyl]Methyl] Amino)Ethyl]Piperazine-1-Carboxylate] | 1790 | –
Cc1ccc(C(=O)Nc2ccc(CNCCN3CCNCC3)c(C(F)(F)F)c2)cc1C#Cc1cnc2cccnn12 [Cmp. 13, 3-(2-[imidazo[1,2-b]pyridazin-3-yl]ethynyl)-4-methyl-n-[4-([[2-(piperazin-1-yl)ethyl]amino]methyl)-3-(trifluoromethyl)phenyl]benzamide] | 5.5 | –
C#Cc1cc(C(=O)Nc2ccc(CNCCN3CCN(c4ccccc4)CC3)c(C(F)(F)F)c2)ccc1C [Cmp. 11, 3-Ethynyl-4-Methyl-N-[4-([[2-(4-Phenylpiperazin-1-Yl)Ethyl]Amino]Methyl)-3-(Trifluoromethyl)Phenyl] benzamide] | 8940 | –
CCN(C)S(=O)(=O)Nc1ccc(F)c(C(=O)c2c[nH]c3ncc(-c4cnc(C5CC5)nc4)cc23)c1F [PLX7904, reference compound] | 6.7 | –
COc1cc(N2CCN(CCNCc3ccc(NC(=O)c4ccc(C)c(C#Cc5cnc6cccnn56)c4)cc3C(F)(F)F)CC2)ncn1 [Cmp. 4, 3-(imidazo[1,2-b]pyridazin-3-ylethynyl)-N-(4-(((2-(4-(6-methoxypyrimidin-4-yl)piperazin-1-yl)ethyl)amino)methyl)-3-(trifluoromethyl)phenyl)-4-methylbenzamide] | 48 | –
C#Cc1cc(C(=O)Nc2ccc(CNCCN3CCOCC3)c(C(F)(F)F)c2)ccc1C [Cmp. 10, 3-ethynyl-4-methyl-N-(4-(((2-morpholinoethyl)amino)methyl)-3-(trifluoromethyl)phenyl)benzamide] | 1360 | –
C#Cc1cc(C(=O)Nc2ccc(CNCCN3CCN(c4ccccn4)CC3)c(C(F)(F)F)c2)ccc1C [Cmp. 14, 3-Ethynyl-4-Methyl-N-(4-(((2-(4-(Pyridin-2-Yl)Piperazin-1-Yl)Ethyl)Amino)Methyl)-3-(Trifluoromethyl)Phenyl) benzamide] | 1830 | –
Cc1ccc(C(=O)Nc2ccc(CNCCc3ccncn3)c(C(F)(F)F)c2)cc1C#Cc1cnc2cccnn12 [Cmp. 7, 3-(imidazo[1,2-b]pyridazin-3-ylethynyl)-4-methyl-N-(4-(((2-(pyrimidin-4-yl)ethyl)amino)methyl)-3-(trifluoromethyl)phenyl)benzamide] | 44.3 | –
Cc1ccc(C(=O)Nc2ccc(CNCCN3CCC(=O)CC3)c(C(F)(F)F)c2)cc1C#Cc1cnc2cccnn12 [Cmp. 5, 3-(imidazo[1,2-b]pyridazin-3-ylethynyl)-4-methyl-N-(4-(((2-(4-oxopiperidin-1-yl)ethyl)amino)methyl)-3-(trifluoromethyl)phenyl)benzamide] | 30.7 | –
Cc1ccc(C(=O)Nc2ccc(CNCCN3CCOCC3)c(C(F)(F)F)c2)cc1C#Cc1cnc2cccnn12 [PHI1, 3-(imidazo[1,2-b]pyridazin-3-ylethynyl)-4-methyl-N-(4-(((2-morpholinoethyl)amino)methyl)-3-(trifluoromethyl)phenyl)benzamide] | 10.4 | Difference in Koff values versus ponatinib (BLI) (BRAF^V600E [2]): no significant difference; Affinity for BRAF^V600E compared to ponatinib (BLI) (BRAF^V600E [2]; 25° C., PBS, 0.01% Tween-20, 2% DMSO): higher affinity; Reduction of inhibitory activity for FGFR relative to ponatinib (FGFR): 43 fold; Reduction of inhibitory activity for FLT3 relative to ponatinib (FLT3): 10 fold; IC50 ([3]; SKMEL239-C4 cells, 1 hr treatment): 300 to 500 nM; Co-operativity in second site inhibition of BRAF^V600E dimer (p-ERK IC50 upon Encorafenib pre-treatment) ([3]; SKMEL239 C4 cells with vs without Encorafenib pre-treatment): positive co-operativity; Activity against BRAF^V600E monomers in A375 cells [4]: significantly reduced compared to ponatinib; Growth inhibition (viability) [5]: inhibits effectively the growth; Binding affinity for BRAF monomers (ITC) [6]: high micromolar affinity; Induction of BRAF/CRAF complexes (BRAF/CRAF heterodimers): induces less; Induction of BRAF/MEK complexes (BRAF/MEK complex): induces less
C#Cc1cc(C(=O)Nc2ccc(CNCCN3CCN(C(=O)OC(C)(C)C)CC3)c(C(F)(F)F)c2)ccc1C [Cmp. 9, Tert-Butyl4-[2-([[4-(3-Ethynyl-4-Methylbenzamido)-2-(Trifluoromethyl)Phenyl]Methyl] Amino)Ethyl]Piperazine-1-Carboxylate] | 10900 | –
C#Cc1cc(C(=O)Nc2ccc(CNCCN3CCNCC3)c(C(F)(F)F)c2)ccc1C [Cmp. 12, 3-Ethynyl-4-Methyl-N-[4-([[2-(Piperazin-1-Yl)Ethyl]Amino]Methyl)-3-(Trifluoromethyl)Phenyl] benzamide] | 11900 | –
Cc1ccc(C(=O)Nc2ccc(CNCCN3CCN(S(C)(=O)=O)CC3)c(C(F)(F)F)c2)cc1C#Cc1cnc2cccnn12 [Cmp. 6, 3-(imidazo[1,2-b]pyridazin-3-ylethynyl)-4-methyl-N-(4-(((2-(4-(methylsulfonyl)piperazin-1-yl)ethyl)amino)methyl)-3-(trifluoromethyl)phenyl)benzamide] | 29.4 | –
Cc1ccc(C(=O)Nc2ccc(CN3CCN(C)CC3)c(C(F)(F)F)c2)cc1C#Cc1cnc2cccnn12 [Ponatinib] | – | Inhibition of BRAF^V600E phosphorylation of recombinant MEK (BRAF^V600E [7]): potent inhibitor; Inhibition of CRAF activity (CRAF): potently inhibited; Inhibition of ERK signaling (ERK signaling): inhibited ERK signaling
